According to patent publication US20090062267A1, “L-ALANINE DERIVATIVES AS a5beta1 ANTAGONISTS” (ASTRAZENECA AB, priority 2007, published 2009):

These compounds were tested against recombinant human α5β1 (Homo sapiens, UniProt P05556+P08648) (assay: In Vitro Binding Assay (a): inhibition of binding of α5β1 integrin to a fragment of human fibronectin (Fn9-10), Origen electrochemiluminescence). Conditions: geometric mean where tested more than once.
From the text: The assay determined the ability of compounds to inhibit binding of α5β1 integrin to a cognate ligand, a fragment of human fibronectin. The assay used Origen technology (IGEN International) to measure the compound activity. Briefly, α5β1 integrin was coated onto epoxy-paramagnetic beads (Dynal Biotech UK, Bromborough, Wirral, CH62 3QL, UK, Catalogue No 140.11) and biotinylated-fibronectin ligand was coupled to strepatividin labeled Tag-NHS-Ester (BioVeris Corporation, Witney, Oxfordshire, OX28 4GE, UK, Catalogue No 110034). The ruthenium-labeled tag emits an electrochemiluminescence signal upon stimulation which is detected by the Origen reader. Thus, interaction of integrin and ligand causes association of bead and tag, and the resulting electrochemiluminescence signal reflects the level of integrin interaction with fibronectin.
20 μg of recombinant human α5β1 was coated onto 4×10(7) epoxy-paramagnetic beads according to manufacturers instructions at 4° C. for 24 hours. Integrin coating and corresponding activity was subsequently measured for each batch but typically, 25 ng of coated protein was used per assay well.
A DNA fragment encoding the domains 9-10 (amino-acids 1325-1509) of human fibronectin (Swiss-Prot Accession No. P02751) was isolated from cDNA libraries using standard molecular biology and PCR cloning techniques. The cDNA fragment was sub-cloned into a pT73.3 expression vector containing a GST-epitope tag (developed at AstraZeneca; Bagnall et al., Protein Expression and Purification, 2003, 27: 1-11). Following expression in E. coli, the expressed protein, termed Fn9-10, was purified using the GST-tag using standard purification techniques. The recombinant Fn9-10 was subsequently biotinylated using a EZ-link Sulfo-NHS-LC-Biotinylation kit (Perbio Science UK Ltd., Cramlington, Northumberland, NE23 1WA, UK, Catalogue No. 21335) and made to give a final concentration of approximately 1 mg/ml. Tag-NHS-Ester was labeled with streptavidin by incubation at room temperature following manufacturers instructions and buffer-exchanged into PBS to give a concentration of 0.5 mg/ml. Immediately prior to the assay, biotinylated-Fn9-10 and Streptavidin-labeled Tag were diluted in Assay Buffer to give a final concentrations of 0.6 ug/ml and 1.5 ug/ml respectively. The Fn9-10 and Tag solutions were then mixed together in equal volumes and incubated on ice for at least 30 minutes prior to the assay.
Aliquots (20 μl) of each compound dilution were placed into each well of a 384-well round bottomed polypropylene plate (Matrix Technologies, Wilmslow, Cheshire, SK9 3LP, Catalogue No. 4340 384).
For the assay, 25 ng (20 ul) of a5b1-bead suspension and 40 μl of the Fn9-10/Tag pre-incubated solution were added to each well containing 20 μl of compound or control solution. Assay plates were then incubated at room temperature for a minimum of 6 hours before being analysed on an Origen plate reader. The minimum value was subtracted from all values, and the signal was plotted against compound concentration to generate IC50 data.
The data in the above table was generated in an assay substantially as described above in relation to Binding Assay (a). Some of the compounds shown in the table were tested more than once in the assay. For those compounds the IC50 value shown is the geometric mean of the measured IC50 values.

recombinant human α5β1, sequence (P08648 42-1049): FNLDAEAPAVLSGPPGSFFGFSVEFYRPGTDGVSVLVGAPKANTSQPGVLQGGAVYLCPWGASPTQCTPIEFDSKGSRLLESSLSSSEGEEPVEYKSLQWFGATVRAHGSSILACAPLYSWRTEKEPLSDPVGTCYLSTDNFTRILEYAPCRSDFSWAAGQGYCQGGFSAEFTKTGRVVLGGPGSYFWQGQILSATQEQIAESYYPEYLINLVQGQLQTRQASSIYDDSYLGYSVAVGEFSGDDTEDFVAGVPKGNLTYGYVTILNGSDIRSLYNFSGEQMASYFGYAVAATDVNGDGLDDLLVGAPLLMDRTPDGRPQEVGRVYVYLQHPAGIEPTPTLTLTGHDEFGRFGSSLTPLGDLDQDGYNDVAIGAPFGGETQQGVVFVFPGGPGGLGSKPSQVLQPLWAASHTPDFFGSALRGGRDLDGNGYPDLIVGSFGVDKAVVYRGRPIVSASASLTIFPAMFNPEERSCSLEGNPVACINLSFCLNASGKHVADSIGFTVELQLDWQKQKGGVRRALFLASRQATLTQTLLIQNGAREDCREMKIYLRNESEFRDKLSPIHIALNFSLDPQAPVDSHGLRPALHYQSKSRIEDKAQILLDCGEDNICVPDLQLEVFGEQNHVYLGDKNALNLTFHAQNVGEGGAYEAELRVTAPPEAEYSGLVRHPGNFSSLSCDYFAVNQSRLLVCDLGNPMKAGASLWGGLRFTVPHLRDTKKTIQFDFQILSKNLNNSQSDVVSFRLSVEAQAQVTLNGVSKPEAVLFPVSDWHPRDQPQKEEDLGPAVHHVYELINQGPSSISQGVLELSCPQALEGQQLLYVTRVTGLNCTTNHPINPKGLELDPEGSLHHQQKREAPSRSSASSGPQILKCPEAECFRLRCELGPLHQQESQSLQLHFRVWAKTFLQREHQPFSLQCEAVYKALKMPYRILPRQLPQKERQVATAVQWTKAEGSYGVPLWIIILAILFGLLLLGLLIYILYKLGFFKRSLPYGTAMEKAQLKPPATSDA
recombinant human α5β1, sequence (P05556 21-798): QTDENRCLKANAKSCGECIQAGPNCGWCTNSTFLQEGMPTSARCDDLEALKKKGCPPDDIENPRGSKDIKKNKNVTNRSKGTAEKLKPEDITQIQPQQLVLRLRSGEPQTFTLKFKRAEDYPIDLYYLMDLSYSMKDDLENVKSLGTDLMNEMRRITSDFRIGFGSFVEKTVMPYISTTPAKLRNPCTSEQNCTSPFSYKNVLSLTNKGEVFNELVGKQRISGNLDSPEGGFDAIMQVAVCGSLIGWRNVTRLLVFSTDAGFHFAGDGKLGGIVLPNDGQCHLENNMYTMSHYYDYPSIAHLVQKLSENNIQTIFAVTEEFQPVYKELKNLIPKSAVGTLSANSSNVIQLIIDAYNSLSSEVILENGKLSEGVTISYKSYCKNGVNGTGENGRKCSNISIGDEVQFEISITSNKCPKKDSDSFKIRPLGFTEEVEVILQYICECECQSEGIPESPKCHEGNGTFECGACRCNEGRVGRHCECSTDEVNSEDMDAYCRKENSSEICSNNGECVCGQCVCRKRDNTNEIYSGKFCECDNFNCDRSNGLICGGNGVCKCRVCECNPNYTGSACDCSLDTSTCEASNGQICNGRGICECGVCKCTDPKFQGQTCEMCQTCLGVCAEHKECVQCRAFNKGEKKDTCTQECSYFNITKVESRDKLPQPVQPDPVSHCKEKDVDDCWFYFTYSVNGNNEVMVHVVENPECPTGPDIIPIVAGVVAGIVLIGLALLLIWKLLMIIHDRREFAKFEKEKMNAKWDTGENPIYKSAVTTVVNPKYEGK

Compound	IC50 [µM]
CNc1cccc(CCOc2ccc(C[C@H](NC(=O)c3cnccc3Cl)C(=O)O)cc2)n1 [Example 2.8, N-[(4-chloropyridin-3-yl)carbonyl]-O-{2-[6-(methylamino)pyridin-2-yl]ethyl}-L-tyrosine]	0.008
CNc1cccc(CCOc2ccc(C[C@H](NC(=O)c3c(Cl)c4ccccc4n3C)C(=O)O)cc2)n1 [Example 1.26, N-[(3-chloro-1-methyl-1H-indol-2-yl)carbonyl]-O-{2-[6-(methylamino)pyridin-2-yl]ethyl}-L-tyrosine]	0.111
CNc1cccc(CCOc2ccc(C[C@H](NC(=O)c3cc(C)cs3)C(=O)O)cc2)n1 [Example 1.27, O-{2-[6-(methylamino)pyridin-2-yl]ethyl}-N-[(4-methyl-2-thienyl)carbonyl]-L-tyrosine]	0.05
CNc1cccc(CCOc2ccc(C[C@H](NC(=O)c3conc3C)C(=O)O)cc2)n1 [Example 2.2, O-{2-[6-(methylamino)pyridin-2-yl]ethyl}-N-[(3-methylisoxazol-4-yl)carbonyl]-L-tyrosine]	0.023
CNc1cccc(CCOc2ccc(C[C@H](NC(=O)c3ccc(C)nc3Cl)C(=O)O)cc2)n1 [Example 1.2, N-[(2-chloro-6-methylpyridin-3-yl)carbonyl]-O-{2-[6-(methylamino)pyridin-2-yl]ethyl}-L-tyrosine]	0.019
CNc1cccc(CCOc2ccc(C[C@H](NC(=O)c3sccc3Cl)C(=O)O)cc2)n1 [Example 1.1, N-[(3-chloro-2-thienyl)carbonyl]-O-{2-[6-(methylamino)pyridin-2-yl]ethyl}-L-tyrosine]	0.012
O=C(N[C@@H](Cc1ccc(CCCc2ccc3c(n2)NCCC3)cn1)C(=O)O)c1sccc1Cl [Example 8, N-[(3-chlorothiophen-2-yl)carbonyl]-3-{5-[3-(5,6,7,8-tetrahydro-1,8-naphthyridin-2-yl)propyl]pyridin-2-yl}-L-alanine]	0.004
CNc1cccc(CCOc2ccc(C[C@H](NC(=O)c3cccn3C)C(=O)O)cc2)n1 [Example 1.4, O-{2-[6-(methylamino)pyridin-2-yl]ethyl}-N-[(1-methyl-1H-pyrrol-2-yl)carbonyl]-L-tyrosine]	0.055
CNc1cccc(CCOc2ccc(C[C@H](NC(=O)c3c(C)nn(C)c3C)C(=O)O)cc2)n1 [Example 1.14, O-{2-[6-(methylamino)pyridin-2-yl]ethyl}-N-[(1,3,5-trimethyl-1H-pyrazol-4-yl)carbonyl]-L-tyrosine]	0.013

The remaining lines, values ahead:

IC50 [µM]	Compound
0.051	O=C(N[C@@H](Cc1ccc(OCCc2ccc3c(n2)NCCO3)cc1)C(=O)O)c1sccc1Cl [Example 4.2, N-[(3-chlorothiophen-2-yl)carbonyl]-O-[2-(3,4-dihydro-2H-pyrido[3,2-b][1,4]oxazin-6-yl)ethyl]-L-tyrosine]
< 0.001	O=C(N[C@@H](Cc1ccc(OCCc2ccc3c(n2)NCCC3)cc1)C(=O)O)c1c(Cl)cncc1Cl [Example 5.5, N-[(3,5-dichloropyridin-4-yl)carbonyl]-O-[2-(5,6,7,8-tetrahydro-1,8-naphthyridin-2-yl)ethyl]-L-tyrosine]
0.352	CNc1cccc(CCOc2ccc(C[C@H](NC(=O)c3ccc(OC)nc3OC)C(=O)O)cc2)n1 [Example 3.2, N-[(2,6-dimethoxypyridin-3-yl)carbonyl]-O-{2-[6-(methylamino)pyridin-2-yl]ethyl}-L-tyrosine]
0.0022	Cc1noc(C)c1C(=O)N[C@@H](Cc1ccc(CCCc2ccc3c(n2)NCCC3)cc1)C(=O)O [Example 5.4, N-[(3,5-dimethylisoxazol-4-yl)carbonyl]-4-[3-(5,6,7,8-tetrahydro-1,8-naphthyridin-2-yl)propyl]-L-phenylalanine]
0.02	CNc1cccc(CCOc2ccc(C[C@H](NC(=O)c3cccnc3Cl)C(=O)O)cc2)n1 [Example 3.1, N-[(2-chloropyridin-3-yl)carbonyl]-O-{2-[6-(methylamino)pyridin-2-yl]ethyl}-L-tyrosine]
